Laboratory results as given in patent publication US20230124361A1, “SMALL MOLECULE STING ANTAGONISTS” (CURADEV PHARMA PVT. LTD., priority 2020, published 2023).

target: T1, STING (Homo sapiens, UniProt Q86WV6, G230A/H232R/R293Q/R71H); assay: Reporter gene expression assay in THP1-Dual cells (IRF pathway Lucia luciferase, 2',3'-cGAMP stimulation); assay type: cell-based; details: 10 min preincubation, 5 μM 2',3'-cGAMP, 20 hr, IRF reporter QUANTI-Luc, read-out: THP-1 (HAQ) Activity
T1 construct: host or cells: THP1-Dual cells (human THP-1 monocyte line with Lucia/SEAP reporters)
Experimental: Reporter Gene Expression Assay in THP-1 Cells
THP1-Dual™ cells (Invivogen) were derived from the human THP-1 monocyte cell line by stable integration of two inducible reporter constructs. As a result, THP1-Dual™ cells allow the simultaneous study of the IRF pathway, by assessing the activity of a secreted luciferase (Lucia) and the NF-κB pathway, by monitoring the activity of secreted SEAP. 5×10^4 THP1-Dual™ cells were seeded in 384-well plates in growth medium and preincubated with novel compounds for 10 minutes followed by stimulation with 5 μM 2′,3′-cGAMP. After 20 hr of stimulation the supernatant was removed and the IRF pathway reporter protein was readily measured in the cell culture supernatant using QUANTI-Luc™ (Invivogen), a luciferase detection reagent on a Spectramax i3X luminometer.
In the tables below, IC50 value ranges for exemplary compounds are given. The IC50 ranges are indicated as “A” for values less than or equal to 1 μM, “B” for values greater than 1 μM and less than or equal to 10 μM, and “C” for values greater than 10 μM.

T1 sequence (Q86WV6 whole entry R71H/G230A/H232R/R293Q): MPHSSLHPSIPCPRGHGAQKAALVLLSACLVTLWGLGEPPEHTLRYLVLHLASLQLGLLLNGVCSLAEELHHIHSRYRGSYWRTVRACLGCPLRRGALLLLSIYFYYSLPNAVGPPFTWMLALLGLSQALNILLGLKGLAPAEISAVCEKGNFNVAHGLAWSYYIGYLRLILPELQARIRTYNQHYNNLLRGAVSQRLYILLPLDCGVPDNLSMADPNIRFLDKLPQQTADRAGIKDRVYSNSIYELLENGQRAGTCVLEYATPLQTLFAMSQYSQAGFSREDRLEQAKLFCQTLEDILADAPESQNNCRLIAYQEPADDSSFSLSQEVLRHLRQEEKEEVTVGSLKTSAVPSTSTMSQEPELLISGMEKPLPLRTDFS

| Compound | IC50 [µM] |
| --- | --- |
| O=C(Nc1ccc2c(c1)N(Cc1noc3ccccc13)C(=O)CS2)Nc1ccc2cc[nH]c2c1 [Example 24, 1-(4-(benzo[d]isoxazol-3-ylmethyl)-3-oxo-3,4-dihydro-2H-benzo [b][1,4]thiazin-6-yl)-3-(1H-indol-6-yl)urea] | 1 to 10 |
| NC(=O)C1COc2ccc(NC(=O)Nc3ccc4cc[nH]c4c3)cc2N1Cc1ccccc1 (centres unmarked) [Example 83] | 1 to 10 |
| COc1cc(F)c(CN2C(=O)CSc3cc(NC(=O)Nc4ccc5cc[nH]c5c4)ccc32)c(F)c1 [Example 126, 1-(4-(2,6-difluoro-4-methoxybenzyl)-3-oxo-3,4-dihydro-2H-benzo[b][1, 4]thiazin-7-yl)-3-(1H-indol-6-yl)urea] | ≤ 1 |
| O=C(Nc1ccc2c(c1)OCC(=O)N2CC1CCOC1)Nc1ccc2cc[nH]c2c1 (centres unmarked) [Example 150, 1-(1H-indol-6-yl)-3-(3-oxo-4-((tetrahydrofuran-3-yl)methyl)-3,4-dihydro-2H-benzo [b][1, 4]oxazin-7-yl)urea] | 1 to 10 |
| O=C(Nc1ccc2c(c1)N(Cc1ccccc1)CCO2)Nc1cnc2cc[nH]c2c1 [Example 177, 1-(4-benzyl-3,4-dihydro-2H-benzo[b][1, 4]oxazin-6-yl)-3-(1H-pyrrolo[3,2-b]pyridin-6-yl)urea] | 1 to 10 |
| O=C(Nc1ccc2c(c1)OCC(=O)N2Cc1cccc(CO)c1)Nc1ccc2cc[nH]c2c1 [Example 156, 1-(4-(3-(hydroxymethyl)benzyl)-3-oxo-3,4-dihydro-2H-benzo[b][1, 4]oxazin-7-yl)-3-(1H-indol-6-yl)urea] | 1 to 10 |
| N#Cc1ccc(CNC(=O)Nc2ccc3c(c2)N(Cc2ccccc2)C(=O)CS3)cc1 [Example 12, 1-(4-benzyl-3-oxo-3,4-dihydro-2H-benzo[b][1, 4]thiazin-6-yl)-3-(4-cyanobenzyl) urea] | > 10 |
| O=C1CSc2ccc(-c3ncc(-c4ccccc4)[nH]3)cc2N1Cc1c(F)cccc1Cl [Example 43, 4-(2-Chloro-6-fluorobenzyl)-6-(t-phenyl-1H-imidazol-2-yl)-2H-benzo[b][1,4]thiazin-3(4H)-one] | 1 to 10 |
| Cc1cc2ccc(NC(=O)Nc3ccc4c(c3)OCC(=O)N4Cc3ccccc3)cc2[nH]1 [Example 92, 1-(4-benzyl-3-oxo-3,4-dihydro-2H-benzo[b][1, 4]oxazin-7-yl)-3-(2-methyl-1H-indol-6-yl)urea] | 1 to 10 |
| CN1Cc2ccc(NC(=O)Nc3ccc4cc[nH]c4c3)cc2N(Cc2ccccc2)C1=O [Example 40] | 1 to 10 |
| O=C(Nc1ccc2c(c1)NCC2)Nc1ccc2c(c1)OCC(=O)N2Cc1ccccc1 [Example 142, 1-(4-benzyl-3-oxo-3,4-dihydro-2H-benzo[b][1, 4]oxazin-7-yl)-3-(indolin-6-yl)urea] | 1 to 10 |
| Nc1ncc2c(n1)CCN(C(=O)Nc1ccc3c(c1)N(Cc1ccccc1)C(=O)CS3)C2 [Example 194, 2-amino-N-(4-benzyl-3-oxo-3,4-dihydro-2H-benzo[b][1, 4]thiazin-6-yl)-7,8-dihydropyrido [4,3-d] pyrimidine-6(5H)-carboxamide] | > 10 |
| CN(C(=O)Nc1ccc2cc[nH]c2c1)c1ccc2c(c1)N(Cc1ccccc1)CCO2 [Example 178, 1-(4-benzyl-3,4-dihydro-2H-benzo[b][1, 4]oxazin-6-yl)-3-(1H-indol-6-yl)-1-methylurea] | 1 to 10 |
| Cc1cc2cc[nH]c2cc1NC(=O)Nc1ccc2c(c1)OCC(=O)N2Cc1ccccc1 [Example 91, 1-(4-benzyl-3-oxo-3,4-dihydro-2H-benzo[b][1, 4]oxazin-7-yl)-3-(5-methyl-1H-indol-6-yl)urea] | > 10 |
| O=C(Nc1ccc2c(c1)SCCN2c1ccccc1)Nc1ccc2cc[nH]c2c1 [Example 182, 1-(1H-indol-6-yl)-3-(4-phenyl-3,4-dihydro-2H-benzo[b][1,4]thiazin-7-yl)urea] | ≤ 1 |
| O=C1CCc2ccc(NC(=O)Nc3ccc4c(c3)N(Cc3ccccc3)C(=O)CS4)cc2N1 [Example 29, 1-(4-benzyl-3-oxo-3,4-dihydro-2H-benzo[b][1, 4]thiazin-6-yl)-3-(2-oxo-1,2,3,4-tetrahydro-quinolin-7-yl)urea] | 1 to 10 |
| O=C(Nc1ccc2c(c1)OCC(=O)N2Cc1nc2ccccc2s1)Nc1ccc2cc[nH]c2c1 [Example 117, 1-(4-(benzo[d]thiazol-2-ylmethyl)-3-oxo-3,4-dihydro-2H-benzo[b][1,4]oxazin-7-yl)-3-(1H-indol-6-yl)urea] | ≤ 1 |
| O=C(Nc1ccc2c(c1)OCC(=O)N2Cc1ccccc1)N1CCc2ccccc2C1 [Example 141, N-(4-benzyl-3-oxo-3,4-dihydro-2H-benzo[b][1, 4]oxazin-7-yl)-3,4-dihydro-isoquinoline-2(1H)-carboxamide] | 1 to 10 |

| Compound | IC50 [µM] |
| --- | --- |
| O=C1COc2cc(NC(=O)Nc3ccc4cc[nH]c4c3)ccc2N1 [Example 88, 1-(1H-indol-6-yl)-3-(3-oxo-3,4-dihydro-2H-benzo[b][1, 4]oxazin-7-yl)urea] | > 10 |
| O=C1CSc2ccc(-c3nc(-c4ccccc4)co3)cc2N1Cc1c(F)cccc1Cl [Example 46, 4-(2-Chloro-6-fluorobenzyl)-6-(4-phenyloxazol-2-yl)-2H-benzo[b][1,4]thiazin-3(4H)-one] | > 10 |
| O=C(Nc1ccc2c(c1)SCCN2Cc1c(F)cccc1Cl)Nc1ccc2cc[nH]c2c1 [Example 171, 1-(4-(2-chloro-6-fluorobenzyl)-3,4-dihydro-2H-benzo[b][1, 4]thiazin-7-yl)-3-(1H-indol-6-yl)urea] | ≤ 1 |
| O=C(Nc1ccc2c(c1)N(Cc1ccccc1)CCS2)Nc1ccc2cc[nH]c2c1 [Example 50, 1-(4-Benzyl-3,4-dihydro-2H-benzo[b][1,4]thiazin-6-yl)-3-(1H-indol-6-yl)urea] | ≤ 1 |
| O=C(Nc1ccc2c(c1)OCC(=O)N2Cc1cc2c(cc1Cl)OCO2)Nc1ccc2cc[nH]c2c1 [Example 103, 1-(4-((6-chlorobenzo[d][1,3]dioxol-5-yl)methyl)-3-oxo-3,4-dihydro-2H-benzo[b][1,4]oxazin-7-yl)-3-(1H-indol-6-yl)urea] | ≤ 1 |
| O=C(Nc1ccc(F)cc1)Nc1ccc2c(c1)N(Cc1ccccc1)C(=O)CS2 [Example 3, 1-(4-benzyl-3-oxo-3,4-dihydro-2H-benzo[b][i, 4]thiazin-6-yl)-3-(4-fluorophenyl) urea] | 1 to 10 |
| O=C(Nc1ccc2c(c1)OCC(=O)N2Cc1cc(F)cc(C(F)(F)F)c1)Nc1ccc2cc[nH]c2c1 [Example 112, 1-(4-(3-fluoro-5-(trifluoromethyl)benzyl)-3-oxo-3,4-dihydro-2H-benzo[b][1,4]oxazin-7-yl)-3-(1H-indol-6-yl)urea] | ≤ 1 |
| O=C(Nc1ccc2c(c1)OCC(=O)N2Cc1cccnc1)Nc1ccc2cc[nH]c2c1 [Example 148, 1-(1H-indol-6-yl)-3-(3-oxo-4-(pyridin-3-ylmethyl)-3,4-dihydro-2H-benzo [b][1, 4]oxazin-7-yl)urea] | 1 to 10 |
| O=C(Nc1ccc2c(c1)SCC(=O)N2Cc1c(F)cccc1Cl)Nc1ccc2cc[nH]c2c1 [Example 89, 1-(4-(2-chloro-6-fluorobenzyl)-3-oxo-3,4-dihydro-2H-benzo[b][1, 4]thiazin-7-yl)-3-(1H-indol-6-yl)urea] | ≤ 1 |
| NC(=O)c1cc2c(cc1NC(=O)Nc1ccc3cc[nH]c3c1)OCC(=O)N2Cc1ccccc1 [Example 165, 7-(3-(H-indol-6-yl)ureido)-4-benzyl-3-oxo-3,4-dihydro-2H-benzo[b][1, 4]oxazine-6-carboxamide] | 1 to 10 |
| O=C(Nc1ccc(F)cc1)Nc1ccc2c(c1)N(Cc1ccncc1)C(=O)CS2 [Example 17, l-(4-fluorophenyl)-3-(3-oxo-4-(pyridin-4-ylmethyl)-3,4-dihydro-2H-benzo[b][1, 4]thiazin-6-yl)urea] | > 10 |
| O=C(Nc1ccc2c(c1)OCC(=O)N2Cc1c(F)cccc1Cl)Nc1ccc2cc[nH]c2c1 [Example 93, l-(4-(2-chloro-6-fluorobenzy 1)-3-oxo-3,4-dihydro-2H-benzo[b][i, 4]oxazin-7-yl)-3-(1H-indol-6-yl)urea] | 1 to 10 |
| O=C(Nc1ccc2c(c1)OCC(=O)N2Cc1ccccc1)Nc1ccn(-c2ccccc2)n1 [Example 138, 1-(4-benzyl-3-oxo-3,4-dihydro-2H-benzo[b][1, 4]oxazin-7-yl)-3-(1-phenyl-1H-pyrazol-3-yl)urea] | > 10 |
| NC(=O)C(c1ccccc1)N1CCOc2ccc(NC(=O)Nc3ccc4cc[nH]c4c3)cc21 (centres unmarked) [Example 84, 2-(6-(3-(1H-Indol-6-yl)ureido)-2,3-dihydro-4H-benzo[b][1,4]oxazin-4-yl)-2-phenylacetamide] | 1 to 10 |
| O=C(c1ccccc1)N1CCSc2ccc(S(=O)(=O)NCc3ccco3)cc21 [Example 49, 4-benzoyl-N-(furan-2-ylmethyl)-3,4-dihydro-2H-benzo[b][1,4]thiazine-6-sulfonamide] | > 10 |
| Cc1cc(CN2C(=O)COc3cc(NC(=O)Nc4ccc5cc[nH]c5c4)ccc32)ccc1F [Example 108, 1-(4-(4-fluoro-3-methylbenzyl)-3-oxo-3,4-dihydro-2H-benzo[b][1,4]oxazin-7-yl)-3-(1H-indol-6-yl)urea] | ≤ 1 |
| O=C(Nc1ccc(F)cc1)Nc1ccc2c(c1)N(Cc1cccnc1)C(=O)CS2 [Example 16, l-(4-fluorophenyl)-3-(3-oxo-4-(pyridin-3-ylmethyl)-3,4-dihydro-2H-benzo[b] [1,4]thiazin-6-yl)urea] | > 10 |
